The values below come from patent US20240201204A1, “Biomarker and Druggable Target of Neurodegeneration” (University Hospitals Cleveland Medical Center, priority 2020, published 2024).

What all share (assay type): in vivo, mouse
In one data set the test system is tau. As to the kind of experiment: Tau mislocalization after TBI (tau and NeuN immunohistochemistry). The note with it: vs. TBI+Vehicle. How it is done: (§1) Drug preparation and administration: CGP3466B (Sigma-Aldrich, SML1941) was dissolved in DMSO and then diluted in sterile saline. The final working stock was 0.0014 mg/ml for administering the 0.014 mg/kg dose. Intraperitoneal administration of CGP3466B was initiated 15 min or 24 h after injury, and tissues were harvested 6 h (for SNO-GAPDH, SNO-SIRT1 measurement) or 2 weeks (for ac-tau measurement) later, respectively. Salsalate (AdipoGen, AG-CR1-3574) was dissolved in DMSO and then diluted in sterile PBS. The final working stocks were as follows: 2.5 mg/ml (25 mg/kg dose), 1 mg/ml (10 mg/kg dose), 0.5 mg/ml (5 mg/kg dose). Daily intraperitoneal administration of salsalate was initiated 24 hr after injury and continued throughout behavioral testing. P7C3-A20 and FK866 (Sigma-Aldrich, F8557) were first dissolved in 1 vol of DMSO, followed by addition of 4 vol of Kolliphor and vigorously vortexing. The solution was then diluted with 30 vol of filtered 5% dextrose (pH 7.0). EX527 (Selleckchem, S1541) was dissolved in 1% DMSO+30% polyethylene glycol+1% Tween 80. Daily intraperitoneal administration of P7C3-A20 was initiated 24 hr after poly-traumatic brain injury. EX527 (10 mg/kg) was administer once a day and FK866 was treated twice per day, with the first injection given at the same time as P7C3-A20 (20 mg/kg) and the second injection given 6 h later (LoCoco et al., 2017 eLife). Diflunisal was first dissolved in 1 vol of DMSO, followed by addition of 2 vol of Kolliphor and vigorously vortexing. The solution was then diluted with 7 vol of saline to the appropriate concentration for administration at 25, 50, or 100 mg/kg.
(§2) The pressure in the side not containing the mouse was increased to cause membrane rupture at 20 pounds per square inch (PSI), which generates an about 1-2 ms jet airflow of 137.9+/−13.79 kPa that passes through the animal's head. The head remains untethered in a padded holder, while the body is fully shielded by a metal tube. The jet of air produced upon membrane rupture provides a concussive injury, which is followed by acceleration/deceleration of the head and then exposure to the ensuing blast wave within an enclosed space.
Immunohistochemistry: Mice were transcardially perfused with cold 1× phosphate-buffered saline (PBS) followed by 4% paraformaldehyde in PBS at pH 7.4 under anesthesia. Brains were carefully removed and post-fixed in 4% paraformaldehyde overnight at 4° C. Brains were immersed in 30% sucrose in PBS for 72 h at 4° C. and then rapidly frozen in 2-methylbutane pre-cooled to −20° C. with dry ice. Brains were cut coronally (40 μm) and sections were stored in cryoprotective solution (150 mM Ethylene glycol, 100 mM glycerol, 250 mM PBS) at −20° C. […]

In another data set the test system is degenerating axons. As to the kind of experiment: Axon degeneration after TBI (silver staining). The note with it: vs. TBI+Vehicle. How it is done: as §1, with “Diflunisal was first dissolved in 1 vol of DMSO, followed by addition of 2 vol of Kolliphor and vigorously vortexing. The solution was then diluted with 7 vol of saline to the appropriate concentration for administration at 25, 50, or 100 mg/kg.” left out

The next data set deals with axon initial segment. In words: Axon initial segment (AIS) degradation after TBI (AnkG, βIV-spectrin staining). The note with it: vs. TBI+Vehicle. How it is done:
as §1, §2
Immunohistochemistry: Mice were transcardially perfused with cold 1× phosphate-buffered saline (PBS) followed by 4% paraformaldehyde in PBS at pH 7.4 under anesthesia. Brains were carefully removed and post-fixed in 4% paraformaldehyde overnight at 4° C. Brains were immersed in 30% sucrose in PBS for 72 h at 4° C. and then rapidly frozen in 2-methylbutane pre-cooled to −20° C. with dry ice. Brains were cut coronally (40 μm) and sections were stored in cryoprotective solution (150 mM Ethylene glycol, 100 mM glycerol, 250 mM PBS) at −20° C. For tau and NeuN staining, sections were washed three times with PBS for 5 min and then treated with 0.2% Triton X-100 in PBS for 15 min. Sections were washed with PBS and then incubated with 100 mM glycine for 15 min. After blocking sections using blocking buffer (1% bovine serum albumin, 10% normal goat serum, 0.3 M glycine) for 30 min, primary antibodies (Tau, Invitrogen, #13-6400, 1:100, NeuN, EMD Millipore Cor., #MABN-140, 1:500) were incubated overnight at 4° C. Sections were washed three times with PBS (5 min each) and then incubated with Alexa Fluor 488 goat anti-mouse (Invitrogen, A11001, 1:200) or Alexa Fluor 568 goat anti-rabbit (Life technologies, A11011, 1:200) at room temperature for 2 h. […]

A further data set relates to C57BL/6J mice. In words: Barnes maze task of learning and memory after TBI. How it is done:
as §1, §2
Barnes maze: The Barnes maze apparatus consisted of a gray circular platform (91 cm in diameter and 90 cm in height), with 20 equally spaced holes 5 cm in diameter along the perimeter (Stoelting Co.). One of these holes contained a recessed escape chamber located under the platform. Four different and equally-spaced visual cues with different shapes and colors were hung on a black circular curtain surrounding the maze. […] Total and primary latency were measured during training days, and latency to first nose pokes in escape hole and time spent in target quadrant were measured for memory test on the probe trial day. […]

Another data set concerns p300/CBP. As to the kind of experiment: p300/CBP activity after TBI (acetylation of p300/CBP, H2AK5, H3K18; western blot). To be noted: vs. TBI+Vehicle. The method, then:
as §1, §2
Western blotting: Western blotting was performed as described previously (Min et al., 2010), with the 9AB antibody against acetylated-tau generated in the Gan laboratory. […] Lysates were centrifuged at 170,000 g at 4° C. for 15 min and at 18,000 g at 4° C. for 10 min, after which protein concentrations of supernatants were measured by bicinchoninic acid assay (Thermo Scientific, A53225). […]

The mark [1] stands for this setting: low-dose salsalate daily IP from 24 h after TBI.

With `C#CCN(C)CC1=Cc2ccccc2Oc2ccccc21.O=C(O)/C=C\C(=O)O` [CGP3466B], in the data set on tau (CGP3466B 0.014 mg/kg IP daily, initiated 24 hours after TBI), the post-TBI tau mislocalization entry is given as “protects mice from post-TBI tau mislocalization”. The “post-TBI axon degeneration (silver staining)” value in the data set on degenerating axons (CGP3466B 0.014 mg/kg IP daily) is listed as “protects mice from post-TBI axon degeneration”. Further, in the data set on axon initial segment (CGP3466B 0.014 mg/kg IP daily), the “post-TBI AIS degradation, cerebral cortex” value is on record as “protects mice from post-TBI AIS degradation in the cerebral cortex” and the “post-TBI AIS degradation, hippocampus” value is listed as “protects mice from post-TBI AIS degradation in the hippocampus”. In the data set with C57BL/6J mice (CGP3466B 0.014 mg/kg IP daily, initiated 24 hours after injury, vs. TBI+Vehicle), the “post-TBI cognition, learning and memory phases of Barnes maze” value was “protects mice from post-TBI impaired cognition in both learning and memory phases”. Besides, the “ac-p300/CBP in cerebral cortex” value with p300/CBP (CGP3466B 0.014 mg/kg, after TBI) was “reduces ac-p300/CBP in cerebral cortex after TBI”.

For `O=C(Oc1ccccc1C(=O)O)c1ccccc1O` [salsalate], the post-TBI tau mislocalization entry in the data set with tau (setting [1]) is recorded as “protects mice from post-TBI tau mislocalization”. Also, the post-TBI axonal degeneration entry in the data set with degenerating axons (setting [1]) is reported as “protects mice from post-TBI axonal degeneration”. Also, the “post-TBI AIS degradation” value in the data set on axon initial segment (setting [1]) is reported as “protects mice from post-TBI AIS degradation”. For the same molecule, in the data set with C57BL/6J mice (low-dose salsalate daily IP from 24 h after TBI, vs. TBI+Vehicle), the “post-TBI cognitive impairment (learning and memory in the Barnes maze)” value was “protects mice from post-TBI impairments”. In addition, the “average speed in behavioral testing” value in the data set with C57BL/6J mice (salsalate daily IP from 24 h after TBI) is listed as “Average speed was not affected”. Further, the “learning, primary latency during training period of the Barnes maze” value in the data set with C57BL/6J mice (salsalate daily IP from 24 h after TBI, vs. TBI+Vehicle) is on record as “improved learning as measured by primary latency”. Besides, in the data set with p300/CBP (low-dose salsalate after TBI), the “ac-H2AK5 levels in cerebral cortex and hippocampus” value is “significantly reduced levels of ac-H2AK5 and ac-H3K18”; the “ac-H3K18 levels in cerebral cortex and hippocampus” value was “significantly reduced levels of ac-H2AK5 and ac-H3K18”; the “acetylation of p300/CBP” value is “acetylation of p300/CBP was also significantly reduced”.
